Test results published in patent publication US20220040136A1, “TREATMENT OF VULVOVAGINAL DISORDERS” (University of Rochester, priority 2018, published 2022).

Columns and labels:
Format in all cases: cell-based
human vulvar fibroblasts [1] = test: In vitro LPV model: SPM pre-treatment of patient vestibular/vulvar fibroblasts before inflammatory stimulation, IL-6 and PGE2 by ELISA/EIA; settings: pre-treated 10 hours with 5 nM SPM, vestibular and external vulvar fibroblasts
Protocol: (§1) FIGS. 5A, 5B, 5C, and 5D are a set of diagrams showing that PGE2 and IL-6 production is reduced by SPMs. Patient vestibular or vulvar fibroblasts were pre-treated for 10 hours with Lipoxin A4 (LxA4), Resolvin D2 (RvD2), (7R)-Maresin 1 or epi(7S)-Maresin 1 at a 5 nM concentration, then activated with IL-1β (Panel A; 10 pg/ml) or bradykinin (Panel B; 100 nM) for 48 hr. Culture media were collected and analyzed for PGE2 (Panel A) or IL-6 (Panel B) content. Patient fibroblasts were also activated first with IL-1β for 30 min then treated with 5 nM (7R)-Maresin 1 or LXA4 for 18 hours, followed by a booster dose for 6 hr. Culture media were collected and analyzed for PGE2 (Panel C) or IL-6 (Panel D) content. Mean+/−SEM of n=3, ANOVA *p<0.05 vs. activation only (no SPM).
FIGS. 23A and 23B are diagrams showing six SPMs are effective in reducing IL-6 and PGE2 production from fibroblasts when used as a pre-treatment and post-treatment. Patient vestibular or vulvar fibroblasts were pre-treated for 18 h with Resolvin D3 (RvD3), Resolvin D4 (RvD4), Resolvin D5 (RvD5), Resolvin E1 (RvE1), Protectin D1 or Protectin DX at a 5 nM concentration, pre-treated again for 30 min prior to activation, then activated with 10 pg/ml IL-1β for 48 h with a booster SPM dose at 24 h. Culture media were collected and analyzed for IL-6 (Panel A) and PGE2 (Panel B). Mean+/−SEM of n=6 (two cases run in triplicate), ANOVA *p<0.05 vs. activation only (IL-1b).
(§2) In this example, a fibroblast-based in vitro LPV model was established. Briefly, fibroblast strains were obtained from two regions (FIG. 1) of the lower genital tract of localized provoked vulvodynia (LPV) cases and pain-free controls in the manner described in Falsetta et al. Am J Obstet Gynecol 2015, vol. 213, pp. 38 e1-12 and Foster et al., Pain 2015, vol. 156, pp. 386-96.
(§3) Over 30 paired fibroblast strains obtained from LPV-afflicted cases (fulfilling Friedrich's Criteria)^25 and age/race-matched (critical variables influencing LPV),^26, 27 pain-free controls were obtained. All subjects who contributed to the library were premenopausal, denied oral corticosteroids, non-steroidal, immunomodulatory, or anti-inflammatory medication use, and reported an absence of systemic/cutaneous inflammatory conditions at the time of sample collection. Mechanical pain thresholds were determined (via a method of limits) (0.5-5 N) using a Wagner algometer. Fibroblast identity was confirmed by microscopy and fibroblast markers (vimentin, collagen); only low passage (˜4) cells are used.
(§4) Synthesized, purified and commercially available SPMs from each known SPM class (E-series Resolvins, D-series Resolvins, Maresins, Protectins and Lipoxins) at low/nanomolar concentrations (1-100 nM) were tested. […] The inventors used one of two treatment regimens proven effective in vulvar fibroblasts and other cells: 1) overnight pre-treatment, followed by another treatment 30 min prior to stimulation with proinflammatory stimuli for 48 hr with a third dose of SPMs at 24 hr post-challenge, or 2) post-treatment with SPMs after a 30 min pre-treatment with inflammatory stimuli, followed by a booster dose 18 hr later. Both treatment regimens are of interest, as SPMs are active throughout the inflammatory process.^5-7 Even SPMs administered after LPV onset are likely to prevent the worsening or spread of LPV pain.
Next, SPMs from other classes (E series Resolvins and Protectins), as well as additional SPMs from classes containing members that are effective in reducing IL-6 and PGE2 production (e.g., Maresins) were investigated in similar screen. […] SPMs that were effective in reducing more than one proinflammatory mediator in at least 2 tests can be examined for further testing using a preclinical mouse model. […] These additional effective SPMs include Resolvin D3, Resolvin D4, Resolvin D5, Resolvin E1, Protectin D1, and Protectin DX. […]

human vulvar fibroblasts [2] = test: In vitro LPV model: SPM post-treatment of already activated patient fibroblasts, IL-6 and PGE2; settings: post-treatment: IL-1β 30 min, then 5 nM SPM 18 hours, booster dose 6 hr
Protocol: as §1
FIGS. 24A and 24B are diagrams showing that six SPMs are effective in reducing IL-6 and PGE2 production from fibroblasts when used as a post-treatment. Patient vestibular or vulvar fibroblasts were activated first with IL-1β for 30 min then treated with RvD3, RvD4, RvD5, RvE1, Protectin D1 or Protectin DX at a 5 nM concentration for 18 hours, followed by a booster SPM dose for 24 hr. Culture media were collected and analyzed for IL-6 (Panel A) and PGE2 (Panel B) content. Mean+/−SEM of n=6 (two cases run in triplicate), ANOVA *p<0.05 vs. activation only (IL-1b). […] The magnitude of reduction was not as great as pre-treatment, but equally significant as the reduction from pre-treatment regimens.
as §2, §3, §4

Mouse vulvar tissue = test: Mouse vulvar explants (4 mm punch biopsy), IL-1β-stimulated PGE2 production; settings: pre-treatment 18 hours, then IL-1β 10 pg/ml 18 hours; range of doses, as low as 1 nM; FIG. 6
Protocol: FIG. 6 is a diagram showing that SPMs inhibit PGE2 production from mouse vulvar tissue. Mouse vulvar tissue (4 mm punch biopsies) was collected and bisected then pre-treated in culture medium with either Maresin 1 or RvD2 at indicated concentrations for 18 hours, followed by an additional 18 hours stimulation with IL-1β (10 pg/ml). Culture medium was collected and analyzed for PGE2 content. Mean+/−SEM; n=3 replicate cultures. ANOVA * p<0.05 vs. vehicle.
Although SPM structure and therapeutic efficacy is conserved across species,^5-7 inventors first confirmed that mouse vulvar tissues responded to SPM treatment in vitro by culturing mouse vulvar explants (4 mm punch biopsy). The explants were stimulated with IL-1, and then assays were carried to assess the ability of Maresin 1 or RvD2 to reduce PGE2 production under the established pre-treatment regimen.

CC/C=C\C/C=C\C[C@H](O)\C=C/C=C/C=C/[C@H](O)C/C=C\CCC(=O)O [Maresin 1, 7R,14S-docosa-4Z,8E,10E,12Z,16Z,19Z-hexaenoic acid]
prostaglandin E2 (PGE2) production (human vulvar fibroblasts [1]; then IL-1β 10 pg/ml 48 hr, FIG. 5A): significantly reduced
interleukin-6 (IL-6) production (human vulvar fibroblasts [1]; then bradykinin 100 nM 48 hr, FIG. 5B): significantly reduced
PGE2 levels (human vulvar fibroblasts [2]; FIG. 5C): significantly reduced
IL-6 levels (human vulvar fibroblasts [2]; FIG. 5D): significantly reduced
PGE2 responses following IL-1β treatment (Mouse vulvar tissue): significantly suppressed
